Here are results for eight compounds from the supplement of paper PMC10627819.

Assay [1] concerns B. subtilis 168. As to the kind of experiment: Bliss interaction score (quartile over a dose matrix) (fitness difference); higher = more antagonism (negative = synergy). The procedure, abridged: (§1)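 The Bliss score is observed fitness minus expected fitness, where the expected value is the product of single-drug fitness values inferred from combination data. Fitness is OD595 at entry into stationary phase normalised to the plate's robust no-drug mean and capped at 1. Scores are reported as quartiles spanning technical, biological and donor/recipient replicates.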

The subject of assay [2] is S. aureus DSM 20231. Described as above. The procedure, abridged: as §1
Assay [3] relates to S. aureus Newman. Described as above. The procedure, abridged:
as §1

Assay [4] deals with S. pneumoniae D39V. Described as above. In a few lines: as §1
Assay [5] relates to S. aureus DSM 20231. The assay can be described thus: fitness (endpoint OD595 vs no drug) (fraction); higher = more growth. In a few lines: (§2)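 With the first reading as background, OD595 was measured every 30 min for 14 h in 384-well plates kept at 37 °C and inoculated at OD595 0.01. TSB, LB Lennox or CY was the medium. Fitness is the optical density at the transition into stationary phase divided by the robust mean of no-drug control wells, with a cap of 1.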

The test system of assay [6] is S. aureus Newman. The description is as above. In a few lines: as §2
The mark [7] stands for this setting: first compound 0.75 µg/mL, partner 0.625 µg/mL.
[8] abbreviates: first compound 0.75 µg/mL, partner 1.25 µg/mL.
The mark [9] stands for this setting: first compound 0.75 µg/mL, partner 2.5 µg/mL.
The mark [10] stands for this setting: first compound 1.5 µg/mL, partner 0.625 µg/mL.
The mark [11] stands for this setting: first compound 1.5 µg/mL, partner 1.25 µg/mL.
Setting [12] is: first compound 1.5 µg/mL, partner 2.5 µg/mL.
Setting [13] is: first compound 3 µg/mL, partner 0.625 µg/mL.
Where [14] appears, read: first compound 3 µg/mL, partner 1.25 µg/mL.
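Throughout, for Bliss interaction score (quartile over a dose matrix): first quartile when negative (synergy) and third quartile when positive (antagonism).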

As for `CC(=O)OC[C@H]1O[C@@H]([S-])[C@H](OC(C)=O)[C@@H](OC(C)=O)[C@@H]1OC(C)=O.CCP(CC)CC.[Au+]` [Auranofin] + CC[C@H]1OC(=O)[C@H](C)[C@@H](O[C@H]2C[C@@](C)(OC)[C@@H](O)[C@H](C)O2)[C@H](C)[C@@H](O[C@@H]2O[C@H](C)C[C@H](N(C)C)[C@H]2O)[C@](C)(OC)C[C@@H](C)C(=O)[C@H](C)[C@@H](O)[C@]1(C)O [Clarithromycin], the Bliss interaction score came to 0.0346 in assay [1], 0.0219 in assay [2], 0.0636 in assay [3] and 0.039 in assay [4].

In the case of `CC(=O)OC[C@H]1O[C@@H]([S-])[C@H](OC(C)=O)[C@@H](OC(C)=O)[C@@H]1OC(C)=O.CCP(CC)CC.[Au+]` [Auranofin] + CC[C@H](C)[C@H](N)C1=N[C@H](C(=O)N[C@@H](CC(C)C)C(=O)N[C@H](CCC(=O)O)C(=O)N[C@H](C(=O)N[C@H]2CCCCNC(=O)[C@H](CC(N)=O)NC(=O)[C@@H](CC(=O)O)NC(=O)[C@H](Cc3cnc[nH]3)NC(=O)[C@@H](Cc3ccccc3)NC(=O)[C@H]([C@@H](C)CC)NC(=O)[C@@H](CCCN)NC2=O)[C@@H](C)CC)CS1 [Bacitracin], the Bliss interaction score in assay [1] (main component drawn) is 0.165; in assay [2] (main component drawn) it was 0.0174; in assay [3] (main component drawn) it was 0.133; in assay [4] (main component drawn) it was -0.0398.

On to `CC(=O)OC[C@H]1O[C@@H]([S-])[C@H](OC(C)=O)[C@@H](OC(C)=O)[C@@H]1OC(C)=O.CCP(CC)CC.[Au+]` [Auranofin] + CN1C2=CC=CC=C2N=C3C1=CC=CC3=O [Pyocyanin], for which the Bliss interaction score in assay [1] is -0.0273; in assay [2], 0.0747; in assay [3], -0.158; in assay [4], 0.0818.

Take `CC(=O)OC[C@H]1O[C@@H]([S-])[C@H](OC(C)=O)[C@@H](OC(C)=O)[C@@H]1OC(C)=O.CCP(CC)CC.[Au+]` [Auranofin] + CN(C)C(=O)C(CCN1CCC(O)(c2ccc(Cl)cc2)CC1)(c1ccccc1)c1ccccc1 [Loperamide]: the Bliss interaction score in assay [1] came out at 0.0417; in assay [2] it was 0.0252; in assay [3] it was 0.113; in assay [4] it was 0.116.

Turning to `CC(=O)OC[C@H]1O[C@@H]([S-])[C@H](OC(C)=O)[C@@H](OC(C)=O)[C@@H]1OC(C)=O.CCP(CC)CC.[Au+]` [Auranofin] + CN(C)[C@@H]1C(O)=C(C(N)=O)C(=O)[C@@]2(O)C(O)=C3C(=O)c4c(O)ccc(Cl)c4[C@@](C)(O)[C@H]3C[C@@H]12 [Clortetracycline], the Bliss interaction score in assay [1] stood at 0.0659; in assay [2] it was 0.0317; in assay [3], 0.0623; in assay [4], 0.0541.

Turning to `CC(=O)OC[C@H]1O[C@@H]([S-])[C@H](OC(C)=O)[C@@H](OC(C)=O)[C@@H]1OC(C)=O.CCP(CC)CC.[Au+]` [Auranofin] + CN(C)c1cc(NC(=O)CNC(C)(C)C)c(O)c2c1C[C@H]1C[C@H]3[C@H](N(C)C)C(O)=C(C(N)=O)C(=O)[C@@]3(O)C(O)=C1C2=O [Tigecycline], the Bliss interaction score in assay [1] was 0.0508; in assay [2] it was -0.0332; in assay [3], -0.066; in assay [4], 0.0966.

As to `O=C(N[C@H](CO)[C@H](O)c1ccc([N+](=O)[O-])cc1)C(Cl)Cl` [Chloramphenicol] + COc1cccc2c1C(=O)c1c(O)c3c(c(O)c1C2=O)C[C@@](O)(C(=O)CO)C[C@@H]3O[C@H]1C[C@H](N)[C@H](O)[C@H](C)O1 [Doxorubicin], the fitness in assay [5] (setting [7]) came out at 0.646; in assay [5] (setting [8]), 0.698; in assay [5] (setting [9]), 0.663; in assay [5] (setting [10]) it was 0.572; in assay [5] (setting [11]) it was 0.569; in assay [5] (setting [12]), 0.525. Besides, the fitness in assay [5] (setting [13]) came to 0.118; in assay [5] (setting [14]), 0.121; in assay [6] (setting [7]) it was 0.676; in assay [6] (setting [8]) it was 0.72; in assay [6] (setting [9]), 0.685; in assay [6] (setting [10]), 0.564. The fitness in assay [6] (setting [11]) stood at 0.562; in assay [6] (setting [12]), 0.579; in assay [6] (setting [13]), 0.326; in assay [6] (setting [14]), 0.291. Moreover, the figures for the Bliss interaction score in assay [1], in assay [3] and in assay [4] were -0.0604, 0.132 and -0.127, respectively.

On to `O=C(N[C@H](CO)[C@H](O)c1ccc([N+](=O)[O-])cc1)C(Cl)Cl` [Chloramphenicol] + Cc1ncc([N+](=O)[O-])n1CCO [Metronidazole], for which the fitness in assay [5] (setting [7]) stood at 0.775; in assay [5] (setting [8]) it was 0.736; in assay [5] (setting [9]) it was 0.755; in assay [6] (setting [7]), 0.796; in assay [6] (first compound 0.75 µg/mL, partner 0.781 µg/mL), 0.789; in assay [6] (setting [8]), 0.819. In addition, the fitness in assay [6] (first compound 0.75 µg/mL, partner 1.562 µg/mL) turned out to be 0.768; in assay [6] (setting [9]), 0.853; in assay [6] (first compound 0.75 µg/mL, partner 3.124 µg/mL), 0.752; in assay [6] (setting [10]), 0.555; in assay [6] (first compound 1.5 µg/mL, partner 0.781 µg/mL), 0.539; in assay [6] (setting [11]) it was 0.573. The fitness in assay [6] (first compound 1.5 µg/mL, partner 1.562 µg/mL) worked out at 0.527; in assay [6] (setting [12]) it was 0.564; in assay [6] (first compound 1.5 µg/mL, partner 3.124 µg/mL) it was 0.521; in assay [6] (setting [13]), 0.159; in assay [6] (setting [14]) it was 0.167; in assay [6] (first compound 3 µg/mL, partner 1.562 µg/mL), 0.172. For the same compound, the fitness in assay [6] (first compound 3 µg/mL, partner 3.124 µg/mL) is 0.231. Also, the results for the Bliss interaction score in assay [1], in assay [3] and in assay [4] were 0.0423, -0.07 and 0.0867, respectively.
